Results published in patent publication US11459318B2, “Pesticidally active pyrrole derivatives” (Syngenta Participations AG, priority 2017, dated 2022).
Where two headings read alike, the source gives them in different places.

Columns and labels:
Assay type in all cases: in vivo
[1] = test system: Tetranychus urticae (Two-spotted spider mite); test: Tetranychus urticae (Two-spotted spider mite): Feeding/contact activity; settings: foliar, 192 h, read-out: control (mortality)
Description: Tetranychus urticae (Two-spotted spider mite): Feeding/contact activity
Bean leaf discs on agar in 24-well microtiter plates were sprayed with aqueous test solutions prepared from 10,000 ppm DMSO stock solutions. After drying the leaf discs were infested with a mite population of mixed ages. The samples were assessed for mortality on mixed population (mobile stages) 8 days after infestation.

[2] = test system: Diabrotica balteata (Corn root worm); test: Diabrotica balteata (Corn root worm), maize sprouts sprayed, L2 larvae mortality; settings: 96 h, application rate of 200 ppm, L2 larvae on maize sprouts, assessed 4 days after infestation, read-out: control (mortality)
Description: Diabrotica balteata (Corn root worm):
Maize sprouts placed onto an agar layer in 24-well microtiter plates were treated with aqueous test solutions prepared from 10,000 ppm DMSO stock solutions by spraying. After drying, the plates were infested with L2 larvae (6 to 10 per well). The samples were assessed for mortality 4 days after infestation.

[3] = test system: Euschistus heros (Neotropical Brown Stink Bug); test: Euschistus heros (Neotropical Brown Stink Bug): Feeding/contact activity; settings: 120 h, read-out: control (mortality)
Description: Euschistus heros (Neotropical Brown Stink Bug): Feeding/contact activity Soybean leaves on agar in 24-well microtiter plates were sprayed with aqueous test solutions prepared from 10,000 ppm DMSO stock solutions. After drying the leaves were infested with N2 nymphs. The samples were assessed for mortality 5 days after infestation.

[4] = test system: Plutella xylostella (Diamond back moth); test: Plutella xylostella (Diamond back moth): Feeding/contact activity; settings: 120 h, application rate of 200 ppm, L2 larvae on artificial diet, assessed 5 days after infestation, read-out: control (mortality)
Description: Plutella xylostella (Diamond back moth): Feeding/contact activity
24-well microtiter plates with artificial diet were treated with aqueous test solutions prepared from 10,000 ppm DMSO stock solutions by pipetting. After drying, the plates were infested with L2 larvae (10 to 15 per well). The samples were assessed for mortality 5 days after infestation.

[5] = test system: Spodoptera littoralis (Egyptian cotton leaf worm); test: Spodoptera littoralis (Egyptian cotton leaf worm): Feeding/contact activity; settings: foliar, 72 h, read-out: control (mortality)
Description: Spodoptera littoralis (Egyptian cotton leaf worm): Feeding/contact activity Cotton leaf discs were placed onto agar in 24-well microtiter plates and sprayed with aqueous test solutions prepared from 10,000 ppm DMSO stock solutions. After drying the leaf discs were infested with five L1 larvae. The samples were assessed for mortality 3 days after infestation.

[6] = test system: Myzus persicae (Green peach aphid); test: Myzus persicae (Green peach aphid): Feeding/Contact activity; settings: foliar, 144 h, read-out: control (mortality)
Description: Myzus persicae (Green peach aphid): Feeding/Contact activity Sunflower leaf discs were placed onto agar in a 24-well microtiter plate and sprayed with aqueous test solutions prepared from 10,000 ppm DMSO stock solutions. After drying, the leaf discs were infested with an aphid population of mixed ages. The samples were assessed for mortality 6 days after infestation.

[7] = application rate of 200 ppm, mite population of mixed ages (mobile stages) on bean leaf discs, assessed 8 days after infestation
[8] = application rate of 200 ppm, N2 nymphs on soybean leaves, assessed 5 days after infestation
[9] = application rate of 200 ppm, L1 larvae on cotton leaf discs, assessed 3 days after infestation
[10] = application rate of 200 ppm, aphid population of mixed ages on sunflower leaf discs, assessed 6 days after infestation

Measured: mortality at 200 ppm

N#CC1(NC(=O)c2cc(-c3cnn(-c4c(Br)c(Br)c(SC(F)(F)F)n4C4CC4)c3)ccc2Cl)CC1 [Compound 41, 2-chloro-N-(1-cyanocyclopropyl)-5-[1-[3,4-dibromo-1-cyclopropyl-5-(trifluoromethylsulfanyl)pyrrol-2-yl]pyrazol-4-yl]benzamide]
≥ 80%: [1]; [7] | [2] | [3]; [8] | [4] | [5]; [9]

CC(C)(C#N)NC(=O)c1cc(-c2cnn(-c3ccc(C(F)(C(F)(F)F)C(F)(F)F)n3C3CC3)c2)ccc1Cl [Compound 37, 2-chloro-N-(1-cyano-1-methyl-ethyl)-5-[1-[1-cyclopropyl-5-[1,2,2,2-tetrafluoro-1-(trifluoromethyl)ethyl]pyrrol-2-yl]pyrazol-4-yl]benzamide]
≥ 80%: [1]; [7] | [3]; [8] | [4] | [5]; [9] | [6]; [10]

Cn1c(C(F)(F)C(F)(F)F)cc(Cl)c1-n1cc(-c2ccc(Cl)c(C(=O)NC3(C#N)CC3)c2)cn1 [Compound 33]
≥ 80%: [1]; [7] | [2] | [3]; [8] | [4] | [5]; [9] | [6]; [10]

Cn1c(Br)c(Br)c(Br)c1-n1cc(-c2ccc(Cl)c(C(=O)NC3(C#N)CC3)c2)cn1 [Compound 15, 2-chloro-N-(1-cyanocyclopropyl)-5-[1-(3,4,5-tribromo-1-methyl-pyrrol-2-yl)pyrazol-4-yl]benzamide]
≥ 80%: [2] | [4] | [5]; [9]

CC(=O)N(C(=O)c1cc(-c2cnn(-c3ccc(C(F)(C(F)(F)F)C(F)(F)F)n3C3CC3)c2)ccc1Cl)C1(C#N)CC1 [Compound 36, N-acetyl-2-chloro-N-(1-cyanocyclopropyl)-5-[1-[1-cyclopropyl-5-[1,2,2,2-tetrafluoro-1-(trifluoromethyl)ethyl]pyrrol-2-yl]pyrazol-4-yl]benzamide]
≥ 80%: [1]; [7] | [3]; [8] | [4] | [5]; [9] | [6]; [10]

Cn1c(C(F)(F)C(F)(F)F)cc(Br)c1-n1cc(-c2ccc(Cl)c(C(=O)NC3(C#N)CC3)c2)cn1 [Compound 31, 5-[1-[3-bromo-1-methyl-5-(1,1,2,2,2-pentafluoroethyl)pyrrol-2-yl]pyrazol-4-yl]-2-chloro-N-(1-cyanocyclopropyl)benzamide]
≥ 80%: [1]; [7] | [2] | [3]; [8] | [6]; [10]

Cn1c(-c2cc(-c3ccc(Cl)c(C(=O)NC4(C#N)CC4)c3)on2)ccc1C(F)(C(F)(F)F)C(F)(F)F [Compound 5, 2-chloro-N-(1-cyanocyclopropyl)-5-[3-[1-methyl-5-[1,2,2,2-tetrafluoro-1-(trifluoromethyl)ethyl]pyrrol-2-yl]isoxazol-5-yl]benzamide]
≥ 80%: [1]; [7] | [2] | [3]; [8] | [4] | [5]; [9]

N#CCn1c(C(F)(C(F)(F)F)C(F)(F)F)cc(Br)c1-n1cc(-c2ccc(Cl)c(C(=O)NC3(C#N)CC3)c2)cn1 [Compound 13, 5-[1-[3-bromo-1-(cyanomethyl)-5-[1,2,2,2-tetrafluoro-1-(trifluoromethyl)ethyl]pyrrol-2-yl]pyrazol-4-yl]-2-chloro-N-(1-cyanocyclopropyl)benzamide]
≥ 80%: [1]; [7] | [2] | [3]; [8] | [4] | [5]; [9]

COC(=O)N(C(=O)c1cc(-c2cnn(-c3ccc(C(F)(C(F)(F)F)C(F)(F)F)n3C3CC3)c2)ccc1Cl)C1(C#N)CC1 [Compound 39, methyl N-[2-chloro-5-[1-[1-cyclopropyl-5-[1,2,2,2-tetrafluoro-1-(trifluoromethyl)ethyl]pyrrol-2-yl]pyrazol-4-yl]benzoyl]-N-(1-cyanocyclopropyl)carbamate]
≥ 80%: [1] | [3]; in Glycine max | [5] | [6]

CC(=O)N(C(=O)c1cc(-c2cnn(-c3ccc(C(F)(C(F)(F)F)C(F)(F)F)n3C3CC3)c2)ccc1Cl)C(C)(C)C#N [Compound 35, N-acetyl-2-chloro-N-(1-cyano-1-methyl-ethyl)-5-[1-[1-cyclopropyl-5-[1,2,2,2-tetrafluoro-1-(trifluoromethyl)ethyl]pyrrol-2-yl]pyrazol-4-yl]benzamide]
≥ 80%: [1]; [7] | [3]; [8] | [5]; [9] | [6]; [10]

CN(C(=O)c1cc(-c2cnn(-c3ccc(C(F)(C(F)(F)F)C(F)(F)F)n3C3CC3)c2)ccc1Cl)C1(C#N)CC1 [Compound 38, 2-chloro-N-(1-cyanocyclopropyl)-5-[1-[1-cyclopropyl-5-[1,2,2,2-tetrafluoro-1-(trifluoromethyl)ethyl]pyrrol-2-yl]pyrazol-4-yl]-N-methyl-benzamide]
≥ 80%: [1]; [7] | [3]; [8] | [4] | [5]; [9] | [6]; [10]

N#CC1(NC(=O)c2cc(-c3cnn(-c4ccc(C(F)(C(F)(F)F)C(F)(F)F)n4C4CC4)c3)ccc2Cl)CC1 [Compound 40, 2-chloro-N-(1-cyanocyclopropyl)-5-[1-[1-cyclopropyl-5-[1,2,2,2-tetrafluoro-1-(trifluoromethyl)ethyl]pyrrol-2-yl]pyrazol-4-yl]benzamide]
≥ 80%: [1]; [7] | [3]; [8] | [4] | [5]; [9]

Cn1c(C(F)(C(F)(F)F)C(F)(F)F)cc([N+](=O)[O-])c1-n1cc(-c2ccc(Cl)c(C(=O)NC3(C#N)CC3)c2)cn1 [Compound 7, 2-chloro-N-(1-cyanocyclopropyl)-5-[1-[1-methyl-3-nitro-5-[1,2,2,2-tetrafluoro-1-(trifluoromethyl)ethyl]pyrrol-2-yl]pyrazol-4-yl]benzamide]
≥ 80%: [5]; [9]

Cn1c(SC(F)(F)F)cc(Cl)c1-n1cc(-c2ccc(Cl)c(C(=O)NC3(C#N)CC3)c2)cn1 [Compound 32, 2-chloro-5-[1-[3-chloro-1-methyl-5-(trifluoromethylsulfanyl)pyrrol-2-yl]pyrazol-4-yl]-N-(1-cyanocyclopropyl)benzamide]
≥ 80%: [1]; [7] | [2] | [3]; [8] | [5]; [9] | [6]; [10]

Cn1c(C(F)(C(F)(F)F)C(F)(F)F)cc(Br)c1-n1cc(-c2ccc(Cl)c(C(=O)NC3CC3)c2)cn1 [Compound 3, 5-[1-[3-bromo-1-methyl-5-[1,2,2,2-tetrafluoro-1-(trifluoromethyl)ethyl]pyrrol-2-yl]pyrazol-4-yl]-2-chloro-N-cyclopropyl-benzamide]
≥ 80%: [1]; [7] | [2] | [3]; [8] | [4] | [5]; [9]
